We go through 1 molecule from patent publication US20250257357A1, “TREATMENT OF H3.3-MUTANT BRAIN CANCER WITH PNKP INHIBITORS” (UNIVERSITE PARIS CITE, priority 2022, published 2025).

The test system of this assay is Hela cells. As to the kind of experiment: RAD51 and 53BP1 repair foci by immunofluorescence in Hela cells with EZH2 inhibition. The format is cell-based, human. The note with it: 72 h, 1 μM, damaged with camptothecin (3 h, 0.1 μM), FIG. 2B. The method, then:
Camptothecin (CPT, Sigma-Aldrich) was used at 0.1 μM for 3 h, or at 1 μM for 1 or 3 h for iPOND in human cells, and at 5 or 10 μM in yeast cells; hydroxyurea (HU, Sigma-Aldrich) at 2 mM for 3 h; mitomycin C (MMC, Sigma-Aldrich) at 200 ng/ml and 25 ng/ml for 24 h for repair foci analyses and metaphase spreads, respectively; bleomycin (Bleo, Sigma-Aldrich) at 20 µg/mL for 3 h. An overnight treatment with 2 mM Thymidine followed by 3 h release in fresh medium was used to enrich cells in S phase for iPOND experiments (70-75% of cells were in S phase as evaluated by FACS). The EZH2 inhibitor GSK126 (EZH2i, Selleckchem) was used at 1 μM for 72 h.
Cells grown on glass coverslips (VWR) were either fixed directly with 2% paraformaldehyde (PFA) and permeabilized with 0.2% Triton X-100 in PBS or pre-extracted before fixation with 0.5% Triton X-100 in CSK buffer (Cytoskeletal buffer: 10 mM PIPES pH 7.0, 100 mM NaCl, 300 mM sucrose, 3 mM MgCl2) to remove soluble proteins (not bound to chromatin) and then fixed with 2% PFA. […] Images were mounted with Adobe Photoshop applying the same treatment of fluorescence levels to all images from the same experiment. […] The position of the LacO array was determined based on mCherry-LacR signal. DNA repair and PLA foci were identified and counted by using the find maxima function (Fiji software), on maximum intensity z-projections in the case of PLA foci. […]

As for `CC[C@H](C)n1cc(C)c2c(C(=O)NCc3c(C)cc(C)[nH]c3=O)cc(-c3ccc(N4CCNCC4)nc3)cc21` [EZH2i, GSK126], the “RAD51 and 53BP1 foci (DNA repair defect)” value was “did not recapitulate the DNA repair defect”.
